Legend:
SN-38 = compound: CCc1c2c(nc3ccc(O)cc13)-c1cc3c(c(=O)n1C2)COC(=O)[C@]3(O)CC [SN-38]; conditions: max 0.3 µM
Summary of the method: (§1)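 After 24 hours at 37°C and 5% CO2 in 1536-well plates holding 7.5 μl of DMEM/F12 or RPMI with 10% FBS, cancer cell lines were dosed for 72 hours, with final DMSO typically 0.2%. Viability came from CellTiter-Glo 2.0 luminescence, scaled between the means of blank wells and DMSO wells. A non-linear mixed effects model fitted a two-parameter logistic curve to each dose response to give the single-agent IC50.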

[1] = compound: O=C(Nc1ccc2[nH]nc(-c3ccncc3)c2c1)[C@@H]1CCN(CC(=O)N2CCN(c3ccc(-c4ncccn4)cc3)CC2)C1; conditions: max 5 µM
Summary of the method: as §1

Palbociclib = compound: CC(=O)c1c(C)c2cnc(Nc3ccc(N4CCNCC4)cn3)nc2n(C2CCCC2)c1=O [Palbociclib]; conditions: max 10 µM
Summary of the method: as §1

AZD1390 = compound: CC(C)n1c(=O)n(C)c2cnc3cc(F)c(-c4ccc(OCCCN5CCCCC5)nc4)cc3c21 [AZD1390]; conditions: max 0.3 µM
Summary of the method: as §1

AZD6738 = compound: C[C@@H]1COCCN1C2=NC(=NC(=C2)C3(CC3)[S@](=N)(=O)C)C4=C5C=CNC5=NC=C4 [AZD6738]; conditions: max 10 µM
Summary of the method: as §1

AZD0156 = compound: CN(C)CCCOc1ccc(-c2ccc3ncc4c(c3c2)n(C2CCOCC2)c(=O)n4C)cn1 [AZD0156]; conditions: max 3 µM
Summary of the method: as §1

SRA737 = compound: N#Cc1cnc(Nc2cc(NC[C@H]3CNCCO3)c(C(F)(F)F)cn2)cn1 [SRA737]; conditions: max 10 µM
Summary of the method: as §1

5-Fluorouracil = compound: O=c1[nH]cc(F)c(=O)[nH]1 [5-Fluorouracil]; conditions: max 20 µM
Summary of the method: as §1

Carboplatin = compound: C1CC(C1)(C(=O)[O-])C(=O)[O-].N.N.[Pt+2] [Carboplatin]; conditions: max 10 µM
Summary of the method: as §1

Taselisib = compound: Cc1nc(-c2cn3c(n2)-c2ccc(-c4cnn(C(C)(C)C(N)=O)c4)cc2OCC3)n(C(C)C)n1 [Taselisib]; conditions: max 10 µM
Summary of the method: as §1

Etoposide = compound: COc1cc([C@@H]2c3cc4c(cc3[C@@H](O[C@@H]3O[C@@H]5CO[C@@H](C)O[C@H]5[C@H](O)[C@H]3O)[C@H]3COC(=O)[C@H]23)OCO4)cc(OC)c1O [Etoposide]; conditions: max 10 µM
Summary of the method: as §1

Lapatinib = compound: CS(=O)(=O)CCNCc1ccc(-c2ccc3ncnc(Nc4ccc(OCc5cccc(F)c5)c(Cl)c4)c3c2)o1 [Lapatinib]; conditions: max 10 µM
Summary of the method: as §1

AZD4320 = compound: CN(CC[C@H](CSC1=CC=CC=C1)NC2=C(C=C(C=C2)S(=O)(=O)NC(=O)C3=CC=C(C=C3)N4CCC(CC4)[C@H](C5=CC=CC=C5C6=CC=C(C=C6)Cl)O)S(=O)(=O)C(F)(F)F)CCO [AZD4320]; conditions: max 1 µM
Summary of the method: as §1

Doxorubicin = compound: COc1cccc2c1C(=O)c1c(O)c3c(c(O)c1C2=O)C[C@@](O)(C(=O)CO)C[C@@H]3O[C@H]1C[C@H](N)[C@H](O)[C@H](C)O1 [Doxorubicin]; conditions: max 1 µM
Summary of the method: as §1

Venetoclax = compound: CC1(C)CCC(CN2CCN(c3ccc(C(=O)NS(=O)(=O)c4ccc(NCC5CCOCC5)c([N+](=O)[O-])c4)c(Oc4cnc5[nH]ccc5c4)c3)CC2)=C(c2ccc(Cl)cc2)C1 [Venetoclax]; conditions: max 1 µM
Summary of the method: as §1

AZD8186 = compound: C[C@@H](Nc1cc(F)cc(F)c1)c1cc(C(=O)N(C)C)cc2c(=O)cc(N3CCOCC3)oc12 [AZD8186]; conditions: max 10 µM
Summary of the method: as §1

AZD1775 = compound: C=CCn1c(=O)c2cnc(Nc3ccc(N4CCN(C)CC4)cc3)nc2n1-c1cccc(C(C)(C)O)n1 [AZD1775]; conditions: max 3 µM
Summary of the method: as §1

Savolitinib = compound: C[C@@H](c1ccc2nccn2c1)n1nnc2ncc(-c3cnn(C)c3)nc21 [Savolitinib]; conditions: max 1 µM
Summary of the method: as §1

Crizotinib = compound: C[C@@H](Oc1cc(-c2cnn(C3CCNCC3)c2)cnc1N)c1c(Cl)ccc(F)c1Cl [Crizotinib]; conditions: max 10 µM
Summary of the method: as §1

MK-2206 = compound: NC1(c2ccc(-c3nc4ccn5c(=O)[nH]nc5c4cc3-c3ccccc3)cc2)CCC1 [MK-2206]; conditions: max 10 µM
Summary of the method: as §1

Paclitaxel = compound: CC(=O)O[C@H]1C(=O)[C@@]2(C)[C@H]([C@H](OC(=O)c3ccccc3)[C@]3(O)C[C@H](OC(=O)[C@H](O)[C@@H](NC(=O)c4ccccc4)c4ccccc4)C(C)=C1C3(C)C)[C@]1(OC(C)=O)CO[C@@H]1C[C@@H]2O [Paclitaxel]; conditions: max 3 µM
Summary of the method: as §1

AZD5153 = compound: COc1nnc2ccc(N3CCC(c4ccc(OCCN5CCN(C)C(=O)[C@H]5C)cc4)CC3)nn12 [AZD5153]; conditions: max 1 µM
Summary of the method: as §1

Gefitinib = compound: COc1cc2ncnc(Nc3ccc(F)c(Cl)c3)c2cc1OCCCN1CCOCC1 [Gefitinib]; conditions: max 10 µM
Summary of the method: as §1

AZD5363 = compound: C1CN(CCC1(C(=O)N[C@@H](CCO)C2=CC=C(C=C2)Cl)N)C3=NC=NC4=C3C=CN4 [AZD5363]; conditions: max 10 µM
Summary of the method: as §1

Trametinib = compound: CC(=O)Nc1cccc(-n2c(=O)n(C3CC3)c(=O)c3c(Nc4ccc(I)cc4F)n(C)c(=O)c(C)c32)c1 [Trametinib]; conditions: max 1 µM
Summary of the method: as §1

Olaparib = compound: O=C(c1cc(Cc2n[nH]c(=O)c3ccccc23)ccc1F)N1CCN(C(=O)C2CC2)CC1 [Olaparib]; conditions: max 10 µM
Summary of the method: as §1

SG3199 = compound: CC1=CN2[C@@H](C1)C=NC3=CC(=C(C=C3C2=O)OC)OCCCCCOC4=C(C=C5C(=C4)N=C[C@@H]6CC(=CN6C5=O)C)OC [SG3199]; conditions: max 0.001 µM
Summary of the method: as §1

Gemcitabine = compound: Nc1ccn([C@@H]2O[C@H](CO)[C@@H](O)C2(F)F)c(=O)n1 [Gemcitabine]; conditions: max 0.3 µM
Summary of the method: as §1

Prexasertib = compound: COc1cccc(OCCCN)c1-c1cc(Nc2cnc(C#N)cn2)n[nH]1 [Prexasertib]; conditions: max 1 µM
Summary of the method: as §1

Alisertib = compound: COc1cc(Nc2ncc3c(n2)-c2ccc(Cl)cc2C(c2c(F)cccc2OC)=NC3)ccc1C(=O)O [Alisertib]; conditions: max 10 µM
Summary of the method: as §1

AZD7648 = compound: Cc1cc2ncnn2cc1Nc1ncc2c(n1)n(C1CCOCC1)c(=O)n2C [AZD7648]; conditions: max 10 µM
Summary of the method: as §1

AZD5991 = compound: Cc1c2c(nn1C)CSCc1cc(n(C)n1)CSc1cc(c3ccccc3c1)OCCCc1c(C(=O)O)n(C)c3c-2c(Cl)ccc13 [AZD5991]; conditions: max 1 µM
Summary of the method: as §1

Selumetinib = compound: Cn1cnc2c(F)c(Nc3ccc(Br)cc3Cl)c(C(=O)NOCCO)cc21 [Selumetinib]; conditions: max 10 µM
Summary of the method: as §1

Dasatinib = compound: CC1=C(C(=CC=C1)Cl)NC(=O)C2=CN=C(S2)NC3=CC(=NC(=N3)C)N4CCN(CC4)CCO [Dasatinib]; conditions: max 2 µM
Summary of the method: as §1

AZD2811 = compound: CCN(CCO)CCCOc1ccc2c(Nc3cc(CC(=O)Nc4cccc(F)c4)[nH]n3)ncnc2c1 [AZD2811]; conditions: max 1 µM
Summary of the method: as §1

Cell Line	IC50, cell viability 72 h (SN-38)	IC50, cell viability 72 h [1]	IC50, cell viability 72 h (Palbociclib)	IC50, cell viability 72 h (AZD1390)	IC50, cell viability 72 h (AZD6738)	IC50, cell viability 72 h (AZD0156)	IC50, cell viability 72 h (SRA737)	IC50, cell viability 72 h (5-Fluorouracil)	IC50, cell viability 72 h (Carboplatin)	IC50, cell viability 72 h (Taselisib)	IC50, cell viability 72 h (Etoposide)	IC50, cell viability 72 h (Lapatinib)	IC50, cell viability 72 h (AZD4320)	IC50, cell viability 72 h (Doxorubicin)	IC50, cell viability 72 h (Venetoclax)	IC50, cell viability 72 h (AZD8186)	IC50, cell viability 72 h (AZD1775)	IC50, cell viability 72 h (Savolitinib)	IC50, cell viability 72 h (Crizotinib)	IC50, cell viability 72 h (MK-2206)	IC50, cell viability 72 h (Paclitaxel)	IC50, cell viability 72 h (AZD5153)	IC50, cell viability 72 h (Gefitinib)	IC50, cell viability 72 h (AZD5363)	IC50, cell viability 72 h (Trametinib)	IC50, cell viability 72 h (Olaparib)	IC50, cell viability 72 h (SG3199)	IC50, cell viability 72 h (Gemcitabine)	IC50, cell viability 72 h (Prexasertib)	IC50, cell viability 72 h (Alisertib)	IC50, cell viability 72 h (AZD7648)	IC50, cell viability 72 h (AZD5991)	IC50, cell viability 72 h (Selumetinib)	IC50, cell viability 72 h (Dasatinib)	IC50, cell viability 72 h (AZD2811)
LB831-BLC (Bladder Carcinoma)	45.8 nM	> 5000 nM	> 10000 nM	> 300 nM	> 10000 nM	> 3000 nM	> 10000 nM	> 20000 nM	> 10000 nM	5820 nM	> 10000 nM	> 10000 nM	> 1000 nM	821 nM	> 1000 nM	> 10000 nM	2140 nM	> 1000 nM	> 10000 nM	> 10000 nM	69.1 nM	> 1000 nM	> 10000 nM	> 10000 nM	> 1000 nM	> 10000 nM	> 1 nM	202 nM	> 1000 nM	> 10000 nM	> 10000 nM	> 1000 nM	> 10000 nM	> 2000 nM	> 1000 nM
HO-1-N-1 (Oral Cavity Carcinoma)	4.4 nM	2260 nM	> 10000 nM	> 300 nM	5590 nM	> 3000 nM	> 10000 nM	17600 nM	> 10000 nM	1960 nM	1260 nM	7300 nM	> 1000 nM	84.2 nM	> 1000 nM	> 10000 nM	1520 nM	> 1000 nM	5580 nM	> 10000 nM	< 3 nM	202 nM	8370 nM	> 10000 nM	417 nM	> 10000 nM	> 1 nM	6.22 nM	60.1 nM	68.7 nM	> 10000 nM	788 nM	> 10000 nM	581 nM	409 nM
Calu-3 (Lung Adenocarcinoma)	> 300 nM	> 5000 nM	> 10000 nM	> 300 nM	> 10000 nM	> 3000 nM	> 10000 nM	> 20000 nM	> 10000 nM	2790 nM	5550 nM	1780 nM	> 1000 nM	> 1000 nM	> 1000 nM	> 10000 nM	2890 nM	> 1000 nM	> 10000 nM	> 10000 nM	> 3000 nM	337 nM	3730 nM	> 10000 nM	> 1000 nM	> 10000 nM	> 1 nM	> 300 nM	> 1000 nM	> 10000 nM	> 10000 nM	> 1000 nM	> 10000 nM	> 2000 nM	> 1000 nM
ME-1 (Acute Myeloid Leukemia)	> 300 nM	> 5000 nM	> 10000 nM	> 300 nM	> 10000 nM	> 3000 nM	> 10000 nM	> 20000 nM	> 10000 nM	> 10000 nM	> 10000 nM	> 10000 nM	22.7 nM	> 1000 nM	7.88 nM	> 10000 nM	1260 nM	> 1000 nM	> 10000 nM	> 10000 nM	> 3000 nM	> 1000 nM	> 10000 nM	> 10000 nM	> 1000 nM	> 10000 nM	> 1 nM	> 300 nM	315 nM	> 10000 nM	> 10000 nM	694 nM	> 10000 nM	> 2000 nM	> 1000 nM
RO82-W-1 (Thyroid Gland Carcinoma)	> 300 nM	> 5000 nM	> 10000 nM	> 300 nM	> 10000 nM	> 3000 nM	> 10000 nM	> 20000 nM	> 10000 nM	> 10000 nM	> 10000 nM	> 10000 nM	> 1000 nM	> 1000 nM	> 1000 nM	> 10000 nM	> 3000 nM	> 1000 nM	> 10000 nM	> 10000 nM	> 3000 nM	> 1000 nM	> 10000 nM	> 10000 nM	> 1000 nM	> 10000 nM	> 1 nM	> 300 nM	> 1000 nM	> 10000 nM	> 10000 nM	> 1000 nM	> 10000 nM	> 2000 nM	> 1000 nM

— the supplement of paper PMC11061612
